Results reported in patent US20040010001A1, “Methods and compositions for modulating cell proliferation and cell death” (priority 1999, published 2004).
pIC50: −log10 of the molar value. Where two headings read alike, the source gives them in different places.

Experiments:
[1] = system: human PC3-LN lung metastases
Procedure: Animal care was in accordance with the guidelines at the Ohio State University. Several human tumor models were used, including (a) lung metastases derived from intravenous injection of human PC3-LN tumor cells, (b) lung tumors derived from direct injection of human PC3 cells in lungs, and (c) subcutaneously implanted PC3 tumors. Four studies were performed. In all studies, drug treatment was administered intravenously via a tail vein, after the tumor was established. The first and second studies used the intravenous PC3-LN lung metastasis model. Briefly, human PC3-LN cells ([…] in 0.1 ml physiologic saline) were injected intravenously, via a tail vein, into immunodeficient mice. […] Treatment was given twice weekly for three weeks. […] Three days after completion of drug treatments, animals were euthanized and their lungs removed, fixed in Bouin's solution to visualize tumor nodules, and then processed for histologic evaluation. […] The lung surface area (counted as number of pixel) occupied by the tumor was calculated as a fraction of the total lung area, using Adobe PhotoShop. The number of tumor cells in residual tumors and the fraction of apoptotic cells in each tumor were also determined microscopically. Because apoptotic cells disappear over time, a second measure of the extent of apoptosis was the density of non-apoptotic cells in the residual tumors. This was determined by counting the number of non-apoptotic tumor cells in randomly selected microscopic fields at 400× magnification. […] In the case of combination therapy where fewer than 5 tumor nodules remained per animal, all residual cells (between 20 to 600 cells per animal) were counted.

[2] = system: human prostate PC3-LN tumor cells; assay: cells; type: cell-based; conditions: read-out: IC50, suramin concentration required to result in 50% reduction in BrdU incorporation
[3] = system: Human prostate PC3 tumor cells; assay: cells; type: cell-based; conditions: read-out: IC50, suramin concentration required to result in 50% reduction in BrdU incorporation
Procedure: PC3 and PC3-LN tumor cells. […] […].
Cells are harvested from subconfluent cultures using trypsin and resuspended in fresh medium before plating. […] Cells are plated in 96 well microtiter plates at a density such that confluence would not be achieved at the end of the drug treatment period. Cells are allowed to attach to the plate surface by growing in drug-free medium for 20 to 24 hr. […] The drug effect should be measured as inhibition of BrdU incorporation, e.g., according to the Cell Proliferation ELISA BrdU (Boehringer Mannheim).

[4] = clinical; conditions: human, plasma, 240 mg/m^2
[5] = Jodrell et al (1994); cited from earlier work
[6] = system: human PC3 lung tumors; assay: Lung tumors established by direct injection of PC3 cells into the lungs of immunodeficient mice; type: in vivo; conditions: suramin alone, three doses of 20 mg/kg (n=3)
Procedure: (§1) Animal care was in accordance with the guidelines at the Ohio State University. Several human tumor models were used, including (a) lung metastases derived from intravenous injection of human PC3-LN tumor cells, (b) lung tumors derived from direct injection of human PC3 cells in lungs, and (c) subcutaneously implanted PC3 tumors. Four studies were performed. In all studies, drug treatment was administered intravenously via a tail vein, after the tumor was established. The first and second studies used the intravenous PC3-LN lung metastasis model. Briefly, human PC3-LN cells ([…] in 0.1 ml physiologic saline) were injected intravenously, via a tail vein, into immunodeficient mice. […] Treatment was given twice weekly for three weeks. […] The lung surface area (counted as number of pixel) occupied by the tumor was calculated as a fraction of the total lung area, using Adobe PhotoShop. The number of tumor cells in residual tumors and the fraction of apoptotic cells in each tumor were also determined microscopically. […] This was determined by counting the number of non-apoptotic tumor cells in randomly selected microscopic fields at 400× magnification. […] In the case of combination therapy where fewer than 5 tumor nodules remained per animal, all residual cells (between 20 to 600 cells per animal) were counted.

[7] = system: subcutaneous PC3 tumors; conditions: suramin 10 mg/kg, doxorubicin 5 mg/kg, twice weekly for 3 weeks
Procedure: Briefly, PC3 cells (5×10^6 cells) were injected subcutaneously.

[8] = system: rat MAT-LyLu tumor cells; assay: Reversal of CM-induced resistance by FGF antibodies and suramin, BrdU incorporation; type: cell-based; conditions: CM of histocultures of lung metastases
Procedure: The source of CM was lung histocultures for the aFGF experiment, and early monolayer lung cultures for the bFGF experiment. The study used four controls: no CM (left solid curves, open circles); addition of 5 μg/ml aFGF or bFGF antibody but no CM (inverted filled triangle, overlaps with the left control curve); addition of CM but no antibody (right solid curves, open square); addition of CM plus a nonspecific antibody, IgG (5 μg/ml, filled diamond, overlaps with the right CM-control curve). Dotted curves, from right to left, addition of aFGF or bFGF antibody concentrations of 0.05 μg/ml (filled circle); 0.1 μg/ml (filled square); 1 or 0.5 μg/ml (filled triangle); and 5 μg/ml (open inverted triangle). […] Similar results were also found for human PC3 prostate tumor cells.
The first study used specific inhibitors of extracellular aFGF and bFGF, i.e., monoclonal antibodies (FIG. 2A). […] In the presence of the active CM, the bFGF antibody produced a concentration-dependent reversal of the CM-induced chemoresistance, with complete reversal by 5 microgram/ml antibody, whereas a nonspecific antibody (i.e., non-immune rabbit IgG) had no effect. For aFGF, the antibody treatment partially reversed the CM-induced resistance; the maximum reversal was about 60% that was obtained with 1 microgram/ml antibody with no significant additional reversal at a 5-fold higher concentration. The second study evaluated the effect of removing aFGF and/or bFGF from the active CM by immunoprecipitation. Removal of bFGF abolished the resistance, whereas removal of aFGF only partially reversed the CM effect. These two studies indicate that both aFGF and bFGF were involved in the resistance, but had different roles.
This study was performed using the rat MAT-LyLu tumor cells as the model tumor cells and using doxorubicin and paclitaxel as the model anticancer agents. The CM used to induce resistance was collected from histocultures of lung metastases (see Table 1). Five microgram/ml anti-bFGF antibody was added.

[9] = in vivo; conditions: mouse, iv, 10 mg/kg
Procedure: as §1

[10] = system: rat MAT-LyLu tumor cells, human prostate PC3 tumor cells, PC3-LN cells; assay: Reversal of CM/FGF-induced resistance by suramin; type: cell-based
Procedure: The study was performed using rat MAT-LyLu tumor cells (shown here) and human prostate PC3 and PC3-LN tumor cells. The cytotoxic effect was detected by measuring the changes in BrdU incorporation in treated samples relative to control samples.

[11] = system: rat MAT-LyLu tumor cells; assay: Cytotoxicity of suramin alone, reduction of BrdU incorporation; type: cell-based; conditions: read-out: IC50, suramin concentration required to result in 50% reduction in BrdU incorporation
[12] = doxorubicin study: suramin 10 mg/kg, doxorubicin 5 mg/kg, intravenous twice weekly for three weeks
[13] = paclitaxel study: suramin 10 mg/kg, paclitaxel 15 mg/kg, intravenous twice weekly for three weeks
[14] = suramin 10 mg/kg, doxorubicin 5 mg/kg, intravenous twice weekly for three weeks

With `Cc1ccc(C(=O)Nc2ccc(S(=O)(=O)O)c3cc(S(=O)(=O)O)cc(S(=O)(=O)O)c23)cc1NC(=O)c1cccc(NC(=O)Nc2cccc(C(=O)Nc3cc(C(=O)Nc4ccc(S(=O)(=O)O)c5cc(S(=O)(=O)O)cc(S(=O)(=O)O)c45)ccc3C)c2)c1` [Suramin] the “% Apoptotic cells per tumor” value [1, 12] was 10 ± 7%, the “Density of nonapoptotic cells in residual tumors, cells/field” value [1, 12] was 139 ± 30 cells/field and the “% Apoptotic cells per tumor” value [1, 13] was 4 ± 3%. The “Density of nonapoptotic cells in residual tumors, cells/field” value [1, 13] was 185 ± 104 cells/field, the “antitumor effect and toxicity of suramin alone” value ([1]; suramin 10 mg/kg alone) was “no significant antitumor effect, nor toxicity” and the “% Lung surface area occupied by tumor” value [1, 14] was 7 ± 3%. For the same molecule, the “% Tumor-free animals” value [1, 14] was 0%, the pIC50 [2] was 4.01 and the pIC50 [3] was 4.03. The concentration at 0 h [4] was about 90 µg/mL, the concentration at 96 h [4] was about 18 µg/mL and the total body clearance [5] was 0.0095 liter/hour/m^2. For the same molecule, the “animals free of tumors” value [6] was “No animals”, the “effect on tumor growth” value [7] was “no antitumor activity” and the “suramin concentration that completely inhibited the bFGF-induced resistance” value [8] was 1 to 2 µM. For the same molecule, the concentration at 72 h [9] was about 10 µM, the “concentration needed to fully reverse the FGF-induced resistance” value [10] was 1 to 15 µM and the pIC50 [11] was 3.63.
